Converted amounts (≈) assume the structure as drawn. Where two headings read alike, the source gives them in different places.
Tests used:
[1] = tested on: Streptococcus sp. group D X66; test: MIC, standard agar-dilution assay; assay type: cell-based; settings: Streptococcus sp. group D X66
[2] = tested on: Haemophilus influenzae 76; test: MIC, standard agar-dilution assay; assay type: cell-based; settings: Haemophilus influenzae 76, Ampicillin-resistant strain
[3] = tested on: Staphylococcus aureus X1.1; test: MIC, standard agar-dilution assay; assay type: cell-based
[4] = tested on: Staphylococcus epidermidis 222; test: MIC, standard agar-dilution assay; assay type: cell-based
[5] = tested on: Streptococcus pneumoniae Park I; test: MIC, standard agar-dilution assay; assay type: cell-based
Escherichia coli EC14 = test: MIC, standard agar-dilution assay; assay type: cell-based
[6] = tested on: Streptococcus pyogenes C203; test: MIC, standard agar-dilution assay; assay type: cell-based
[7] = tested on: Streptococcus sp. group D 2041; test: MIC, standard agar-dilution assay; assay type: cell-based
[8] = tested on: Haemophilus influenzae C.L.; test: MIC, standard agar-dilution assay; assay type: cell-based; settings: Ampicillin-sensitive strain
Streptococcus pyogenes = test: Experimental bacterial infection in mice, ED50; assay type: in vivo; settings: two doses, dose protecting 50% of animals; for ED50: Streptococcus pyogenes
Description: (§1) The new derivatives of this invention have also shown in vivo antimicrobial activity against experimental bacterial infections. When two doses of test compound were administered to mice in experimental infections, the activity observed was measured as an EDso value [effective dose in mg/kg to protect 50% of the test animals: see Warren Wick, et al., J. Bacteriol. 81, 233-235 (1961)].

Streptococcus pneumoniae = test: Experimental bacterial infection in mice, ED50; assay type: in vivo; settings: two doses, dose protecting 50% of animals; for ED50: Streptococcus pneumoniae
Description: as §1

Staphylococcus aureus = test: Experimental bacterial infection in mice, ED50; assay type: in vivo; settings: two doses, dose protecting 50% of animals; for ED50: Staphylococcus aureus
Description: as §1

[9] = tested on: Staphylococcus aureus S13E; test: MIC, standard agar-dilution assay; assay type: cell-based
[10] = tested on: Klebsiella pneumoniae X68; test: MIC, standard agar-dilution assay; assay type: cell-based; settings: read-out: MIC
[11] = sc, subcutaneous, read-out: Subcutaneous ED50

Compound | MIC ([1]; read-out: MIC) [µg/mL] | MIC ([2]; read-out: MIC) [µg/mL] | MIC ([3]; read-out: MIC) [µg/mL] | MIC ([4]; read-out: MIC) [µg/mL] | MIC ([5]; read-out: MIC) [µg/mL] | MIC (Escherichia coli EC14; read-out: MIC) [µg/mL] | MIC ([6]; read-out: MIC) [µg/mL] | MIC ([7]; read-out: MIC) [µg/mL] | MIC ([8]; read-out: MIC) [µg/mL] | ED50 (Streptococcus pyogenes; po, read-out: Oral ED50) [mg/kg] | ED50 (Streptococcus pneumoniae; po, read-out: Oral ED50) [mg/kg] | ED50 (Staphylococcus aureus; po, read-out: Oral ED50) [mg/kg] | MIC [9] [µg/mL] | also measured
CC[C@H]1OC(=O)[C@H](C)[C@@H](O[C@H]2C[C@@](C)(OC)[C@@H](O)[C@H](C)O2)[C@H](C)[C@@H](O[C@@H]2O[C@H](C)C[C@H](N(C)C)[C@H]2O)[C@](C)(O)C[C@@H](C)[C@H](NCCCc2ccccc2)[C@H](C)[C@@H](O)[C@]1(C)O [Compound 17, (9S)-9-Deoxo-9-[(3-phenypropyl)amino]erythromycin] | 0.06 (≈ 0.0703 µM) | 2 (≈ 2.34 µM) | 1 (≈ 1.17 µM) | 0.5 (≈ 0.586 µM) | 0.015 (≈ 0.0176 µM) | 128 (≈ 150 µM) | 0.015 (≈ 0.0176 µM) | 2 (≈ 2.34 µM) | 2 (≈ 2.34 µM) | 14.1 | 17.2 | 36.9 | 0.5 (≈ 0.586 µM) | 
CC[C@H]1OC(=O)[C@H](C)[C@@H](O[C@H]2C[C@@](C)(OC)[C@@H](O)[C@H](C)O2)[C@H](C)[C@@H](O[C@@H]2O[C@H](C)C[C@H](N(C)C)[C@H]2O)[C@](C)(O)C[C@@H](C)[C@H](NCCCCCO)[C@H](C)[C@@H](O)[C@]1(C)O [Compound 21, 9-Deoxo-9-[(5-hydroxypentyl)amino]erythromycin] | 0.25 (≈ 0.304 µM) |  | 0.5 (≈ 0.609 µM) | 0.5 (≈ 0.609 µM) | < 0.008 | 32 (≈ 39 µM) | < 0.008 | 4 (≈ 4.87 µM) | 2 (≈ 2.44 µM) | 42.6 | > 50 | > 50 | 0.25 (≈ 0.304 µM) | MIC [10]: 128 µg/mL (≈ 156 µM)
CC[C@H]1OC(=O)[C@H](C)[C@@H](O[C@H]2C[C@@](C)(OC)[C@@H](O)[C@H](C)O2)[C@H](C)[C@@H](O[C@@H]2O[C@H](C)C[C@H](N(C)C)[C@H]2O)[C@](C)(O)C[C@@H](C)[C@H](NCCCOC)[C@H](C)[C@@H](O)[C@]1(C)O [Compound 23, (9S)-9-Deoxo-9-[(3-methoxypropyl)amino]erythromycin] | 0.25 (≈ 0.31 µM) | 4 (≈ 4.96 µM) | 2 (≈ 2.48 µM) | 0.5 (≈ 0.62 µM) | 0.03 (≈ 0.0372 µM) | 64 (≈ 79.3 µM) | 0.125 (≈ 0.155 µM) | 8 (≈ 9.91 µM) | 4 (≈ 4.96 µM) | 13.5 | 15.9 | 16.4 | 2 (≈ 2.48 µM) | ED50 (Streptococcus pyogenes; [11]): 2.1 mg/kg; ED50 (Streptococcus pneumoniae; [11]): 8.3 mg/kg; ED50 (Staphylococcus aureus; [11]): 3.73 mg/kg
CC[C@H]1OC(=O)[C@H](C)[C@@H](O[C@H]2C[C@@](C)(OC)[C@@H](O)[C@H](C)O2)[C@H](C)[C@@H](O[C@@H]2O[C@H](C)C[C@H](N(C)C)[C@H]2O)[C@](C)(O)C[C@@H](C)[C@H](NCCCSC)[C@H](C)[C@@H](O)[C@]1(C)O [Compound 26, 9-Deoxo-9-[[3-(methylthio)propyl]amino]erythromycin] | 0.25 (≈ 0.304 µM) | 4 (≈ 4.86 µM) | 0.5 (≈ 0.607 µM) | 0.5 (≈ 0.607 µM) | 0.015 (≈ 0.0182 µM) | 128 (≈ 156 µM) | 0.015 (≈ 0.0182 µM) | 2 (≈ 2.43 µM) | 4 (≈ 4.86 µM) | 7.9 | 9.2 |  | 0.25 (≈ 0.304 µM) | 
Endo- and Exo-9-Deoxo-9-[(bicyclo[2.2.1]hept-2-en-5-yl-methyl)amino]erythromycin [Compound 19] |  |  |  |  |  |  |  |  |  |  |  |  | 2 | MIC [1]: 1 µg/mL; MIC [2]: 8 µg/mL; MIC [3]: 2 µg/mL; MIC [4]: 1 µg/mL; MIC [5]: 0.015 µg/mL; MIC (Escherichia coli EC14): 64 µg/mL; MIC [6]: 0.25 µg/mL; MIC [7]: 8 µg/mL; MIC [8]: 8 µg/mL; Oral ED50 (Streptococcus pyogenes; oral): 16.6 mg/kg; Oral ED50 (Streptococcus pneumoniae; oral): 25.0 mg/kg; Oral ED50 (Staphylococcus aureus; oral): >50 mg/kg

Source: patent EP0238178B1, “Novel derivatives of erythromycylamine” (ELI LILLY AND COMPANY, priority 1986, dated 1987)
